Like-named read-outs stand apart in the source and are kept apart here.
Test system: panel of 55 breast cancer cell lines
Experiment: Cell growth inhibition assay (Cell Titer Glo, 72 h, 9 doses; GI50, TGI, LC50)
Assay type: cell-based, human
[1] = Homo sapiens, AU565, AU565 cell line, censored GI50 values, read-out: GI50 (converted)
[2] = Homo sapiens, AU565, cell line AU565, read-out: GI50 (converted)
[3] = Homo sapiens, BT-20, BT20 cell line, censored GI50 values, read-out: GI50 (converted)
[4] = Homo sapiens, BT-20, cell line BT20, read-out: GI50 (converted)
[5] = Homo sapiens, BT-474, BT474 cell line, censored GI50 values, read-out: GI50 (converted)
[6] = Homo sapiens, BT-474, cell line BT474, read-out: GI50 (converted)
[7] = Homo sapiens, BT-483, BT483 cell line, censored GI50 values, read-out: GI50 (converted)
[8] = Homo sapiens, BT-483, cell line BT483, read-out: GI50 (converted)
[9] = Homo sapiens, CAMA-1, CAMA1 cell line, censored GI50 values, read-out: GI50 (converted)
[10] = Homo sapiens, CAMA-1, cell line CAMA1, read-out: GI50 (converted)
[11] = Homo sapiens, HCC38, HCC38 cell line, censored GI50 values, read-out: GI50 (converted)
[12] = Homo sapiens, HCC38, cell line HCC38, read-out: GI50 (converted)
[13] = Homo sapiens, HCC70, HCC70 cell line, censored GI50 values, read-out: GI50 (converted)
[14] = Homo sapiens, HCC70, cell line HCC70, read-out: GI50 (converted)
[15] = Homo sapiens, HCC1187, cell line HCC1187, read-out: GI50 (converted)
[16] = Homo sapiens, HCC1428, HCC1428 cell line, censored GI50 values, read-out: GI50 (converted)
[17] = Homo sapiens, HCC1428, cell line HCC1428, read-out: GI50 (converted)
[18] = Homo sapiens, HCC1954, HCC1954 cell line, censored GI50 values, read-out: GI50 (converted)
[19] = Homo sapiens, HCC1954, cell line HCC1954, read-out: GI50 (converted)
[20] = Homo sapiens, HCC2185 cell line, censored GI50 values, read-out: GI50 (converted)
[21] = Homo sapiens, HCC3153 cell line, censored GI50 values, read-out: GI50 (converted)
[22] = Homo sapiens, MCF7, MCF7 cell line, censored GI50 values, read-out: GI50 (converted)
[23] = Homo sapiens, MCF7, cell line MCF7, read-out: GI50 (converted)
[24] = Homo sapiens, MDA-MB-175-VII, MDAMB175VII cell line, censored GI50 values, read-out: GI50 (converted)
[25] = Homo sapiens, MDA-MB-361, MDAMB361 cell line, censored GI50 values, read-out: GI50 (converted)
[26] = Homo sapiens, MDA-MB-453, MDAMB453 cell line, censored GI50 values, read-out: GI50 (converted)
[27] = Homo sapiens, SK-BR-3, SKBR3 cell line, censored GI50 values, read-out: GI50 (converted)
[28] = Homo sapiens, SUM52PE, SUM52PE cell line, censored GI50 values, read-out: GI50 (converted)
[29] = Homo sapiens, SUM149PT, SUM149PT cell line, censored GI50 values, read-out: GI50 (converted)
[30] = Homo sapiens, SUM1315MO2, SUM1315MO2 cell line, censored GI50 values, read-out: GI50 (converted)
[31] = Homo sapiens, SUM-159-PT, SUM159PT cell line, censored GI50 values, read-out: GI50 (converted)
[32] = Homo sapiens, T47D, T47D cell line, censored GI50 values, read-out: GI50 (converted)
[33] = Homo sapiens, UACC-812, UACC812 cell line, censored GI50 values, read-out: GI50 (converted)
[34] = Homo sapiens, ZR-75-1, ZR751 cell line, censored GI50 values, read-out: GI50 (converted)
[35] = Homo sapiens, ZR-75B, ZR75B cell line, censored GI50 values, read-out: GI50 (converted)
[36] = Homo sapiens, cell line HCC2185, read-out: GI50 (converted)
[37] = Homo sapiens, cell line HCC3153, read-out: GI50 (converted)

Cn1c(=O)n(-c2ccc(C(C)(C)C#N)cc2)c2c3cc(-c4cnc5ccccc5c4)ccc3ncc21 [BEZ235]
GI50 [1]: 257 nM | GI50 [2]: 257 nM | GI50 [3]: 3800 nM | GI50 [4]: 3800 nM | GI50 [5]: 347 nM | GI50 [6]: 347 nM | GI50 [7]: 11200 nM | GI50 [8]: 11200 nM | GI50 [9]: 16600 nM | GI50 [10]: 16600 nM | GI50 [11]: 490 nM | GI50 [12]: 490 nM | GI50 [13]: 158 nM | GI50 [14]: 158 nM | GI50 [15]: 33100 nM | GI50 [16]: 17000 nM | GI50 [17]: 17000 nM | GI50 [18]: 52.5 nM | GI50 [19]: 52.5 nM | GI50 [20]: 263 nM | GI50 [21]: 646 nM | GI50 [22]: 589 nM | GI50 [23]: 589 nM | GI50 (Homo sapiens, MDA-MB-134-VI, MDAMB134VI cell line, censored GI50 values, read-out: GI50 (converted)): 1000 nM | GI50 [24]: 1150 nM | GI50 [25]: 813 nM | GI50 (Homo sapiens, MDA-MB-361, cell line MDAMB361, read-out: GI50 (converted)): 813 nM | GI50 (Homo sapiens, MDA-MB-415, MDAMB415 cell line, censored GI50 values, read-out: GI50 (converted)): 263 nM | GI50 (Homo sapiens, MDA-MB-415, cell line MDAMB415, read-out: GI50 (converted)): 263 nM | GI50 [26]: 132 nM | GI50 (Homo sapiens, MDA-MB-453, cell line MDAMB453, read-out: GI50 (converted)): 132 nM | GI50 (Homo sapiens, MDA-MB-468, cell line MDAMB468, read-out: GI50 (converted)): 33100 nM | GI50 [27]: 589 nM | GI50 (Homo sapiens, SK-BR-3, cell line SKBR3, read-out: GI50 (converted)): 589 nM | GI50 [28]: 17000 nM | GI50 (Homo sapiens, SUM52PE, cell line SUM52PE, read-out: GI50 (converted)): 17000 nM | GI50 [29]: 269 nM | GI50 (Homo sapiens, SUM149PT, cell line SUM149PT, read-out: GI50 (converted)): 269 nM | GI50 (Homo sapiens, SUM185PE, SUM185PE cell line, censored GI50 values, read-out: GI50 (converted)): 15100 nM | GI50 (Homo sapiens, SUM185PE, cell line SUM185PE, read-out: GI50 (converted)): 15100 nM | GI50 [30]: 224 nM | GI50 [31]: 36.3 nM | GI50 (Homo sapiens, SUM-159-PT, cell line SUM159PT, read-out: GI50 (converted)): 36.3 nM | GI50 [32]: 282 nM | GI50 (Homo sapiens, T47D, cell line T47D, read-out: GI50 (converted)): 282 nM | GI50 [33]: 16600 nM | GI50 (Homo sapiens, UACC-812, cell line UACC812, read-out: GI50 (converted)): 16600 nM | GI50 [34]: 16600 nM | GI50 (Homo sapiens, ZR-75-1, cell line ZR751, read-out: GI50 (converted)): 16600 nM | GI50 [35]: 141 nM | GI50 (Homo sapiens, ZR-75B, cell line ZR75B, read-out: GI50 (converted)): 141 nM | GI50 [36]: 263 nM | GI50 [37]: 646 nM | GI50 (Homo sapiens, cell line MDAMB134V, read-out: GI50 (converted)): 1000 nM | GI50 (Homo sapiens, cell line MDAMB175V, read-out: GI50 (converted)): 1150 nM | GI50 (Homo sapiens, cell line SUM1315MO, read-out: GI50 (converted)): 224 nM

COc1cc(Nc2c(C#N)cnc3cc(OCCCN4CCN(C)CC4)c(OC)cc23)c(Cl)cc1Cl [Bosutinib]
GI50 (Homo sapiens, 600MPE cell line, censored GI50 values, read-out: GI50 (converted)): 8910 nM | GI50 [1]: 2140 nM | GI50 [2]: 2140 nM | GI50 [3]: 1380 nM | GI50 [4]: 1380 nM | GI50 [5]: 724 nM | GI50 [6]: 724 nM | GI50 [7]: 3550 nM | GI50 [8]: 3550 nM | GI50 [9]: 3240 nM | GI50 [10]: 3240 nM | GI50 [11]: 891 nM | GI50 [12]: 891 nM | GI50 [13]: 891 nM | GI50 [14]: 891 nM | GI50 (Homo sapiens, HCC1143, HCC1143 cell line, censored GI50 values, read-out: GI50 (converted)): 4900 nM | GI50 (Homo sapiens, HCC1143, cell line HCC1143, read-out: GI50 (converted)): 4900 nM | GI50 (Homo sapiens, HCC1187, HCC1187 cell line, censored GI50 values, read-out: GI50 (converted)): 3160 nM | GI50 [15]: 3160 nM | GI50 (Homo sapiens, HCC1419, HCC1419 cell line, censored GI50 values, read-out: GI50 (converted)): 759 nM | GI50 (Homo sapiens, HCC1419, cell line HCC1419, read-out: GI50 (converted)): 759 nM | GI50 [16]: 3890 nM | GI50 [17]: 3890 nM | GI50 (Homo sapiens, HCC1500, HCC1500 cell line, censored GI50 values, read-out: GI50 (converted)): 2570 nM | GI50 (Homo sapiens, HCC1500, cell line HCC1500, read-out: GI50 (converted)): 2570 nM | GI50 (Homo sapiens, HCC1806, HCC1806 cell line, censored GI50 values, read-out: GI50 (converted)): 2090 nM | GI50 (Homo sapiens, HCC1806, cell line HCC1806, read-out: GI50 (converted)): 2090 nM | GI50 (Homo sapiens, HCC1937, HCC1937 cell line, censored GI50 values, read-out: GI50 (converted)): 1450 nM | GI50 (Homo sapiens, HCC1937, cell line HCC1937, read-out: GI50 (converted)): 1450 nM | GI50 [18]: 1170 nM | GI50 [19]: 1170 nM | GI50 [20]: 5010 nM | GI50 [21]: 3800 nM | GI50 (Homo sapiens, LY2 cell line, censored GI50 values, read-out: GI50 (converted)): 2450 nM | GI50 [22]: 2570 nM | GI50 [23]: 2570 nM | GI50 [24]: 1070 nM | GI50 [25]: 1510 nM | GI50 (Homo sapiens, MDA-MB-436, MDAMB436 cell line, censored GI50 values, read-out: GI50 (converted)): 5010 nM | GI50 [26]: 2340 nM | GI50 (Homo sapiens, MDA-MB-468, MDAMB468 cell line, censored GI50 values, read-out: GI50 (converted)): 2570 nM | GI50 [27]: 3890 nM | GI50 [28]: 1450 nM | GI50 [29]: 759 nM | GI50 [30]: 871 nM | GI50 [31]: 1380 nM | GI50 [32]: 5620 nM | GI50 [33]: 2750 nM | GI50 [34]: 14100 nM | GI50 [35]: 7080 nM | GI50 (Homo sapiens, cell line 600MPE, read-out: GI50 (converted)): 8910 nM | GI50 [36]: 5010 nM | GI50 [37]: 3800 nM | GI50 (Homo sapiens, cell line LY2, read-out: GI50 (converted)): 2450 nM

CCc1c2c(nc3ccc(OC(=O)N4CCC(N5CCCCC5)CC4)cc13)-c1cc3c(c(=O)n1C2)COC(=O)[C@]3(O)CC [CPT-11]
GI50 (CAMA1 cell line, censored GI50 values, value is the negative log10 of mol/L): 4.84 | GI50 (MDAMB157 cell line, censored GI50 values, value is the negative log10 of mol/L): 4.80 | GI50 (cell line CAMA1, value is the negative log10 of mol/L): 4.84 | GI50 (cell line MDAMB157, value is the negative log10 of mol/L): 4.80

Source: patent US10770169B2, “Method of providing a treatment to a subject based on a dynamic pathway map” (THE REGENTS OF THE UNIVERSITY OF CALIFORNIA, priority 2010, dated 2020)
